Source: article PMC12505902, “Inhibitors of trehalose-6-phosphate synthase activity in fungal pathogens compromise thermal tolerance pathways” (mBio, 2025)

Tested on: trehalose content of C. neoformans
Experiment: Trehalose measurement (colorimetric glucose assay after trehalase)
Format: cell-based
Conditions: 37°C, sublethal dose (0.5 mM 4456dh), P < 0.05; dose-dependent
Protocol: Fig 5 4456dh treatment results in reduced trehalose accumulation and a decrease in Tps1-dependent virulence factors. Trehalose accumulation measurements for C. albicans (A) and C. neoformans (B) cultured at indicated temperatures in the absence or presence of 0.5 mM 4456dh. Trehalose was measured using a colorimetric glucose assay after treatment of cultures with trehalase. Statistical comparisons were done with a one-way analysis of variance (ANOVA) analysis followed by a post hoc Tukey’s test. Error bars represent SE. (C) C. albicans WT strain SC5314 cells were treated with 0.5 mM, 1.0 mM, and 5 mM 4456dh. […] Cells were harvested, stained in India Ink, and analyzed using differential interference contrast imaging. […]
124 technical replicates. Growth, as determined by a reading of absorbance at 600 nm, was
125 normalized to untreated controls and was corrected for the absorbance of 4456dh in the YPD […]
129 overnight cultures was quantified by measuring the OD600 and corrected for the background
130 absorbance of the medium. Antifungal potency for 4456dh was assessed by minimum inhibitory […]
137 replicates. Growth, as determined by a reading of absorbance at 600 nm, was normalized to
138 untreated controls and was corrected for the absorbance of 4456dh in the YPD medium. […]
139 minimum inhibitory concentration causing 80% growth reduction, or MIC80, was determined based […]

Cn1cc(-c2csc(NC(=O)Cc3ccccn3)n2)cn1 [Compound 4456dh]
change in trehalose: significant decrease in trehalose
